From patent US7888286B2, “Method of selectively controlling morning glory (Ipomoea) spp” (Bayer CropScience AG, priority 2006, dated 2011) come the findings set out here.

Data set [1] deals with morning glory spp. In words: Herbicidal property on weeds. The conditions noted are these: for Herbicidal activity: all of the tested morning glory spp. In kind it is in vivo.
The next data set concerns Solanum carolinense. In words: Herbicidal property on weeds. Conditions: in vivo.
The subject of another data set is Ipomoea lacunosa L. Put plainly: Morning glory spp. control test: glufosinate (salt) sprayed only on upper portion of stem (pot test). In kind it is in vivo. Further details: key to Effect, leaf 6 / Effect, leaf 5 / Effect, leaf 4 / Effect, leaf 3 / Effect, leaf 2 / Effect, leaf 1 / Effect, root / Effect, peak portion of stem / Effect, leaf 8 / Effect, leaf 7: +++ complete death; ++ almost death; + partial death; − no effect. As to the method: In the case of spraying of glufosinate (salt) only on the upper portion of morning glory spp:
Ipomoea lacunosa L. (eight leaves) in a pot was tested. A 200-fold diluted solution of glufosinate (salt) was sprayed only on the upper portion of a stem while preventing spraying on the lower portion thereof. Thereafter, effects on respective portions were observed.

A further data set deals with Abutilon theophrasti. In words: Herbicidal property on weeds. Conditions: in vivo.
The next data set deals with HIROHAFUURINHOZUKI
Put plainly: Herbicidal property on weeds. Conditions: in vivo.

In another data set the test system is soybean. In words: Control machine-spraying of glufosinate (salt) on soybean inter-ridge: phytotoxicity and bean weight of soybean. In kind it is in vivo. Conditions: for Bean weight: soybean field with rampant morning glory spp., 500 mL/10 a sprayed August 9, crop November 11, non-sprayed district 96 ± 21. Here is the method: (§1) Soybean cultivation in the Tokai region is often carried out with large scale by farming associates and large scale farmhouses. Under such circumstances, morning glory spp. cause a serious problem in soybean fields during its growth period, and its controlling method is required to be established quickly. In soybean fields in Anjo City, Aichi Prefecture showing a problem of morning glory spp., a test for proving applicability of controlling morning glory spp. was performed using a control machine-spraying intending laborsaving.
(§2) A commercially available spraying apparatus was attached to the front side of a riding-type control machine, and glufosinate was sprayed from near ground edge. The nozzle position can be varied depending on ridge width and soybean height. In a theory of spraying a herbicide, the herbicide is introduced from a herbicide tank through a hose so that the herbicide can be sprayed on a lower part between ridges (suspending mode). Some farmhouses devise by themselves this spraying apparatus.

In data set [2] the test system is morning glory spp. Put plainly: Control machine-spraying of glufosinate (salt) on soybean inter-ridge: herbicidal effect. Conditions: 500 mL/10 a in 100 L/10 a water. In kind it is in vivo. Here is the method:
as §1, §2
In spraying (FIGS. 1, 2 and 3), morning glory spp. developed almost all over the field, and some of them coiled around soybean, the peak portion thereof extending up to over the head portion of soybean. FIG. 1 is a photograph showing full view of glufosinate spraying. FIG. 2 is a photograph showing glufosinate (salt) sprayed part. FIG. 3 is a photograph showing a herbicidal process of glufosinate (salt). […] FIG. 4 is a photograph showing the killing effect of glufosinate (salt) ranging to the peak portion (shown with an arrow) of the stem of Ipomoea triloba L. (14 days after spraying, August 23). […] This effect appeared even in the peak portion of the stem extending up to over the head portion of the soybean, and in this portion, leaves and stems of morning glory spp. turned to yellow. […] From these phenomena, it was believed that the morning glory spp. show very higher sensitivity to glufosinate (salt) than soybean.

In another data set the test system is Aeschynomene indica. Put plainly: Herbicidal property on weeds. The conditions noted are these: in vivo.
In a further data set the test system is Sida spinosa L. Put plainly: Herbicidal property on weeds. The conditions noted are these: in vivo.
In a further data set the test system is Ipomoea triloba L. Put plainly: Morning glory spp. control test: glufosinate (salt) sprayed only on lower half portion of hill. Type of data set: in vivo. More on the design: key: +++ complete death; ++ almost death; + partial death; − no effect. Conditions: treated Aug. 13, 2005, examined August 23. Here is the method: (§3) In the case of spraying of glufosinate (salt) only on the lower half portion of a hill of morning glory spp:
(§4) Ipomoea hederacea Jacq. and Ipomoea triloba L. generated in the form of grapevine and at the edge of a soybean field in Anjo City, Aichi Prefecture were tested. A 200-fold diluted solution of glufosinate was sprayed only on the lower half portion of the hill while covering the upper half portion thereof with plastic film so that the solution was not sprayed thereon. Thereafter, effects on the lower and upper half portions were observed.

In another data set the test system is Ipomoea hederacea Jacq. The data set is described as above. Type of data set: in vivo. More on the design: key to Effect, upper half portion of hill / Effect, lower half portion of hill: +++ complete death; ++ almost death; + partial death; − no effect. Here is the method:
as §3, §4

The test system of data set [3] is morning glory spp. such as Ipomoea triloba L. and Ipomoea hederacea Jacq. Put plainly: Morning glory spp. control test with bialaphos solution (soybean field). In kind it is in vivo. The conditions noted are these: for Herbicidal effect 1 week after: water 100 L/10 a, sprayed up to 20 cm above ground. As to the method:
On Aug. 9, 2005, a bialaphos solution (active ingredient amount: 18%, used in the form of the sodium salt bialaphos-sodium, amount calculated for bialaphos) was sprayed (solution amount: 500 to 1500 mL/10 a, water amount: 100 L/10 a) to morning glory spp. (height: 55 cm to 70 cm) such as Ipomoea triloba L. and Ipomoea hederacea Jacq. generated between ridges in a soybean field and coiled around soybean, from land surface up to a height of 20 cm above ground, and the herbicidal effect thereafter was observed.

The mark [4] stands for this setting: not sprayed, 200-fold diluted solution sprayed from peak to between sixth and seventh leaves, examined November 6.
Where [5] appears, read: sprayed region, 200-fold diluted solution sprayed on upper portion of stem, treated Oct. 23, 2005, examined November 6.
Where [6] appears, read: scattering to soybean, 500 mL/10 a.

Structures can show the parent of a compound that is named as a salt.

`CC(C)N.O=C(O)CNCP(=O)(O)O` [glyphosate isopropylammonium]: the “Herbicidal activity at the field level” value with morning glory spp. [1] (at the field level in this test range) is reported as “insufficient”. Further, in the data set with morning glory spp. [1] (on these plants (morning glory spp. and the other tested weeds)), the “Manifestation of the activity” value was “specifically slow manifestation of the activity”.
For `CP(=O)(O)CCC(N)C(=O)O` (stereo not shown) [glufosinate (salt), glufosinate], the Herbicidal activity result in the data set with Solanum carolinense is recorded as “high activity”. Besides, the “Herbicidal activity at low herbicidal amount” value in the data set on morning glory spp. [1] (100 mL/10 a) is on record as “high activity”. For the same compound, the Herbicidal activity entry with morning glory spp. [1] was “high activity”. In the data set with Ipomoea lacunosa L. (setting [4]), the “Effect, leaf 1” value is recorded as “−”; the “Effect, leaf 2” value was “−”; the “Effect, leaf 3” value is listed as “−”; the “Effect, leaf 4” value is reported as “−”. For the same compound, in the data set with Ipomoea lacunosa L. (setting [4]), the “Effect, leaf 5” value is given as “++”; the “Effect, leaf 6” value is listed as “++”; the “Effect, root” value is “−”. Moreover, in the data set with Ipomoea lacunosa L. (see Table 2), the “Effect in the lower leaves and in root after spraying only the upper portion of the stem” value is “not observed”; the “Effect under the sprayed region after spraying only the upper portion of the stem” value is recorded as “observed in one to two leaves under the sprayed region”. In the data set on Ipomoea lacunosa L. (setting [5]), the “Effect, leaf 7” value is “+++”; the “Effect, leaf 8” value is “+++”; the “Effect, peak portion of stem” value is given as “+++”. Further, the Herbicidal activity entry in the data set with Abutilon theophrasti is on record as “high activity”. The Herbicidal activity entry in the data set on HIROHAFUURINHOZUKI is “high activity”. Further, the “Phytotoxicity in soybean on spraying only the lower portion of a stem of morning glory spp.” value in the data set on soybean (control machine spraying in soybean field) is reported as “scarce phytotoxicity”. In the data set on soybean (setting [6]), the “Phytotoxicity in the cotyledon and the first leaf of soybean” value is on record as “observed”; the “Phytotoxicity in the upper leaves of soybean” value was “little phytotoxicity”. Further, in the data set with soybean (listed as Glufosinate (salt)), the Bean weight amounted to 193 ± 29 kg/10 a. In the data set with soybean (listed as glufosinate), the Bean weight was found to be 193 kg/10 a. Also, the “Herbicidal effect 4 days after spraying” value in the data set on morning glory spp. [2] (August 13) is listed as “most of leaves at grapevine-form parts of the morning glory spp. died”. In the data set on morning glory spp. [2] (August 23), the “Herbicidal effect 14 days after spraying” value is reported as “most of the morning glory spp. died up to the peak portion of the stem”. Besides, the “Onset of herbicidal effect after spraying” value in the data set with morning glory spp. [2] (soybean field) was “observed from the next day after spraying”. Further, the Herbicidal activity entry in the data set on Aeschynomene indica is listed as “high activity”. The Herbicidal activity result in the data set with Sida spinosa L. is on record as “high activity”. The “Effect, lower half portion of hill” value in the data set on Ipomoea triloba L. (200-fold diluted solution sprayed on lower half portion (sprayed portion)) is on record as “+++”. For the same compound, the “Effect, upper half portion of hill” value in the data set on Ipomoea triloba L. (200-fold diluted solution sprayed on lower half portion only, upper half not sprayed, hills around 70 cm) is reported as “+++”. In addition, the “Effect, lower half portion of hill” value in the data set with Ipomoea hederacea Jacq. (200-fold diluted solution sprayed on lower half portion (sprayed portion), treated Aug. 13, 2005, examined August 23) is “+++”. The “Effect, upper half portion of hill” value in the data set with Ipomoea hederacea Jacq. (200-fold diluted solution sprayed on lower half portion only, upper half not sprayed, treated Aug. 13, 2005, examined August 23, hills around 70 cm) was “+++”. In addition, the “Where activity appeared after spraying only the lower half portion of the hill” value in the data set with Ipomoea hederacea Jacq. (morning glory spp. (Ipomoea hederacea Jacq. and Ipomoea triloba L., see Table 1)) is reported as “appeared not only in the lower half portion of the hill but also in the peak thereof”.
Regarding `CC(C)N1C(=O)c2ccccc2NS1(=O)=O` [Pentazone], the Herbicidal activity result in the data set with morning glory spp. [1] is recorded as “lower activity”; in the data set on Abutilon theophrasti it was “high activity”.
As to `C[C@H](NC(=O)[C@H](C)NC(=O)[C@@H](N)CCP(C)(=O)O)C(=O)O` [bialaphos solution, bialaphos], the “Herbicidal effect 1 week after” value in [3] (solution amount 500 mL/10 a), in data set [3] (solution amount 1000 mL/10 a) and in data set [3] (solution amount 1500 mL/10 a) was “died up to the peak portion of vine” each time. Moreover, the “Onset of effect after the treatment” value in data set [3] (sprayed from land surface up to 20 cm above ground, 500 to 1500 mL/10 a) was “observed from the next day after the treatment”.
